Experimental data reported in patent US12084458B2, “Substituted pyridines, pyridazines, and pyrimidines as TYK2 inhibitors” (Sudo Biosciences Limited, priority 2021, dated 2024).

How the values were obtained:
[1] = tested on: HEK-Blue IL-23 cells (IL-23-stimulated STAT3 SEAP reporter; TYK2 JH2); assay: HEK-Blue IL-23 SEAP reporter assay for profiling TYK2 pseudokinase (JH2) inhibition; assay type: cell-based; conditions: 10 ng/mL human recombinant IL-23, SEAP reporter, read-out: IL23 (TYK2 inhibitory activity, IC50)
Outline: (§1)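 STAT-inducible SEAP read-out: IFNα/β cells got 1 ng/mL IFNα for 16-18 h and IL-23 cells got 10 ng/mL IL-23 for 22-24 hours. In both cases the cytokine followed a 60 min preincubation with titrated test compound.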

[2] = tested on: HEK-Blue IFNα/β cells (IFNα-stimulated STAT1 SEAP reporter; TYK2 JH2); assay: HEK-Blue IFNα/β SEAP reporter assay for profiling TYK2 pseudokinase (JH2) inhibition; assay type: cell-based; conditions: Homo sapiens, HEK-Blue, 1 ng/mL human recombinant IFNα, read-out: IFNα (TYK2 inhibitory activity, IC50)
Outline: as §1

[3] = biological target: T1, TYK2 kinase domain (JH1) (Homo sapiens, UniProt P29597); assay: HTRF-based selectivity assay, TYK2 catalytic domain; assay type: biochemical; conditions: recombinant catalytic domain, ATP 20 μM
T1 construct: recombinant purified His or GST-tagged catalytic domain for each enzyme; made in house
T1 sequence (P29597 897-1176 limits assumed): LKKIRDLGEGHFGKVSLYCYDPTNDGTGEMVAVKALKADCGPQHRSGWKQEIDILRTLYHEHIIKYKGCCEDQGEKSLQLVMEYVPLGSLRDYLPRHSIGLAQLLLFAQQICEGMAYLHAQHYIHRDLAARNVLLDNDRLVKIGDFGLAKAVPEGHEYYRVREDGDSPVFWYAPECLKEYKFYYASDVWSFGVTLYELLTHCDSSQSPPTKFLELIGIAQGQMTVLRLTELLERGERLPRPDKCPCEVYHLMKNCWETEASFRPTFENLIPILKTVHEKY
Experimental: (§2) Example B-2: HTRF-Based Selectivity Assay
(§3) The ability of compounds to inhibit the activity of JAK1, JAK2, JAK3 and TYK2 is measured using a recombinant purified His or GST-tagged catalytic domain for each enzyme (JAK1, JAK2 and TYK2 are generated in-house; JAK3 was purchased from Carna biosciences, Cat #08-046) in an HTRF format biochemical assay. The reactions employs a commercial peptide substrate from Cisbio (Cat #62TK0PEC). The basic assay protocol is as follows: first, 2.5 μL of diluted compounds (4×) in DMSO are dispensed into a 384-well Optiplate. Next, 2.5 μL of enzyme (final concentrations for enzymes are: TYK2—700 ng/mL, JAK1—80.6 ng/mL, JAK2—2.1 ng/mL and JAK3—171.8 ng/mL) is added and incubated at RT for 5-20 min. Finally, 5 μl of mixture of 2× ATP [Final concentration 20 μM for TYK2, 21.43 μM for JAK1, 14.7 μM for JAK2 and 2.12 μM for JAK3]+2× Substrate [Final concentration 217 nM for TYK2, 454.7 nM for JAK1, 200 nM for JAK2 and 257.4 nM for JAK3] is added to 384 well Optiplate. Composition of Kinase assay buffer used in the assay is as follows: HEPES 50 mM, EGTA 1 mM, MgCl2 10 mM, DTT 2 mM, Tween-20 0.01% and water. Then the plates are shaken and then incubated at 26.5° C. for 60 min.

[4] = biological target: T2, JAK1 kinase domain (JH1) (Homo sapiens, UniProt P23458); assay: HTRF-based selectivity assay, JAK1 catalytic domain; assay type: biochemical; conditions: recombinant catalytic domain, ATP 21.43 μM
T2 construct: recombinant purified His or GST-tagged catalytic domain for each enzyme; made in house
T2 sequence (P23458 875-1153 limits assumed): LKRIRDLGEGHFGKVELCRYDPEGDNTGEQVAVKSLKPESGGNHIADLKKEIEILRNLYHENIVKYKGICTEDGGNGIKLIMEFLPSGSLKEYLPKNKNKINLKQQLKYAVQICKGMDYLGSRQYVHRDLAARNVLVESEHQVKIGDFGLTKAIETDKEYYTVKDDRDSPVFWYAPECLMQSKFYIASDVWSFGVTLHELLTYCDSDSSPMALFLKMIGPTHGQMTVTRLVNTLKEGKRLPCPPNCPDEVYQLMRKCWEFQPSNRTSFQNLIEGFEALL
Experimental: as §2, §3

[5] = biological target: T3, JAK2 kinase domain (JH1) (Homo sapiens, UniProt O60674); assay: HTRF-based selectivity assay, JAK2 catalytic domain; assay type: biochemical; conditions: recombinant catalytic domain, ATP 14.7 μM
T3 construct: recombinant purified His or GST-tagged catalytic domain for each enzyme; made in house
T3 sequence (O60674 849-1124 limits assumed): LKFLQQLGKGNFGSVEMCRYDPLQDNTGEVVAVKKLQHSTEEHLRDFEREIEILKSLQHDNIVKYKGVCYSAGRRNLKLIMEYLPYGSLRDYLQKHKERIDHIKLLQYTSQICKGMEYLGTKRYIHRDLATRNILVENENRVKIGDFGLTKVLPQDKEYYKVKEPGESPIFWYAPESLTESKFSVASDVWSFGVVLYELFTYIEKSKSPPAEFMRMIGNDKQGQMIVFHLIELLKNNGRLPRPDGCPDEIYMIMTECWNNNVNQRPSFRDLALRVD
Experimental: as §2, §3

[6] = biological target: T4, JAK3 kinase domain (JH1) (Homo sapiens, UniProt P52333); assay: HTRF-based selectivity assay, JAK3 catalytic domain; assay type: biochemical; conditions: recombinant catalytic domain, ATP 2.12 μM
T4 construct: recombinant purified His or GST-tagged catalytic domain for each enzyme; purchased Carna biosciences 08-046
T4 sequence (P52333 822-1111 limits assumed): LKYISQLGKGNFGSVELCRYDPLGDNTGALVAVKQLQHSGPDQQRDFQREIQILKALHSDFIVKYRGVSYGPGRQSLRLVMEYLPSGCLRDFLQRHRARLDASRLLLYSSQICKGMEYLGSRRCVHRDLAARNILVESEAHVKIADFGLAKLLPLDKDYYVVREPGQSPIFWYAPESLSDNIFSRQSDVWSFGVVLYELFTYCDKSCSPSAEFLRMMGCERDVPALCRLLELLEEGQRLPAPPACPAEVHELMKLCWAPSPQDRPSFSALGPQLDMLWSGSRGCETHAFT
Experimental: as §2, §3

[7] = tested on: HEK-Blue IL-2 reporter cells (IL-2-stimulated STAT5 SEAP reporter); assay: HEK-Blue IL-2 SEAP reporter assay for determining selectivity; assay type: cell-based; conditions: 4 ng/mL human recombinant IL-2
Outline: (§4)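 Cells were plated for 20-22 h, then pretreated with serially diluted compound for 60 min. They were stimulated for 24 h with 4 ng/mL human recombinant IL-2 or 50 ng/mL human recombinant IFNγ, and SEAP induction was read with QUANTI-Blue.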

[8] = tested on: HEK-Blue IFNγ reporter cells (IFNγ-stimulated STAT1 SEAP reporter); assay: HEK-Blue IFNγ SEAP reporter assay for determining selectivity; assay type: cell-based; conditions: Homo sapiens, HEK-Blue, 50 ng/mL human recombinant IFNγ, read-out: IFN-γ (SEAP selectivity, IC50)
Outline: as §4

IC50 [3]	IC50 [4]	IC50 [5]	IC50 [6]	SMILES	IC50 [1]	IC50 [2]	IC50 [7]	IC50 [8]
> 1000 nM	> 1000 nM	> 1000 nM	> 1000 nM	[2H]C([2H])([2H])NC(=O)c1cnc(Nc2ccc(F)cn2)cc1Nc1cccc2c1N(C)CCn1cnnc1-2 [Compound 79, 6-((5-fluoropyridin-2-yl)amino)-N-(methyl-d3)-4-((7-methyl-6,7-dihydro-5H-benzo[f][1,2,4]triazolo[4,3-d][1,4]diazepin-8-yl)amino)nicotinamide]	30 to 300 nM	30 to 300 nM	< 30 nM	< 30 nM
> 1000 nM	> 1000 nM	30 to 300 nM	> 1000 nM	[2H]C([2H])([2H])NC(=O)c1cnc(Nc2cc(C)nc(C)n2)cc1Nc1cccc2c1N(C)CCn1cnnc1-2 [Compound 80, 6-((2,6-dimethylpyrimidin-4-yl)amino)-N-(methyl-d3)-4-((7-methyl-6,7-dihydro-5H-benzo[f][1,2,4]triazolo[4,3-d][1,4]diazepin-8-yl)amino)nicotinamide]	30 to 300 nM	30 to 300 nM	> 1000 nM	> 1000 nM
> 1000 nM	> 1000 nM	> 1000 nM	> 1000 nM	[2H]C([2H])([2H])NC(=O)c1cnc(NC(=O)C2CC2)cc1Nc1cc(F)cc2c1N(C)Cc1nc(C)nn1-2 [Compound 83, 6-(cyclopropanecarboxamido)-4-((8-fluoro-2,5-dimethyl-4,5-dihydro-[1,2,4]triazolo[1,5-a]quinoxalin-6-yl)amino)-N-(methyl-d3)nicotinamide]	< 30 nM	30 to 300 nM	> 1000 nM	> 1000 nM
> 1000 nM	> 1000 nM	> 1000 nM	> 1000 nM	[2H]C([2H])([2H])NC(=O)c1cnc(NC(=O)C2CC2)cc1Nc1nccc2c1N(C)Cc1nc(C)nn1-2 [Compound 84, 6-(cyclopropanecarboxamido)-4-((2,5-dimethyl-4,5-dihydropyrido[3,4-e][1,2,4]triazolo[1,5-a]pyrazin-6-yl)amino)-N-(methyl-d3)nicotinamide]	< 30 nM	30 to 300 nM	> 1000 nM	> 1000 nM
> 1000 nM	> 1000 nM	> 1000 nM	> 1000 nM	[2H]C([2H])([2H])NC(=O)c1nnc(NC(=O)C2CC2)cc1Nc1nccc2c1N(C)Cc1nc(C)nn1-2 [Compound 85, 6-(cyclopropanecarboxamido)-4-((2,5-dimethyl-4,5-dihydropyrido[3,4-e][1,2,4]triazolo[1,5-a]pyrazin-6-yl)amino)-N-(methyl-d3)pyridazine-3-carboxamide]	< 30 nM	30 to 300 nM	> 1000 nM	30 to 300 nM
